Experimental data reported in patent US20100197724A1, “6.5 -PYRROLOPIPERIDINE TACHYKININ RECEPTOR ANTAGONISTS” (priority 2007, published 2010).
pIC50: −log10 of the molar value.

Biological target: T1, human neurokinin-1 receptor (NK1R) (Homo sapiens, UniProt P25103)
T1 construct: expressed in transfected cells
Assay: 125I-substance P binding assay of human NK1R expressed in COS or CHO cells
Conditions: competition with 125I-substance P
Description: Receptor Expression in COS: To express the cloned human neurokinin-1 receptor (NK1R) transiently in COS, the cDNA for the human NK1R was cloned into the expression vector pCDM9 which was derived from pCDM8 (INVITROGEN) by inserting the ampicillin resistance gene (nucleotide 1973 to 2964 from BLUESCRIPT SK+) into the Sac II site. Transfection of 20 ug of the plasmid DNA into 10 million COS cells was achieved by electroporation in 800 ul of transfection buffer (135 mM NaCl, 1.2 mM CaCl2, 1.2 mM MgCl2, 2.4 mM K2HPO4, 0.6 mM KH2PO4, 10 mM glucose, 10 mM HEPES pH 7.4) at 260 V and 950 uF using the IBI GENEZAPPER (IBI, New Haven, Conn.). The cells were incubated in 10% fetal calf serum, 2 mM glutamine, 100 U/ml penicillin-streptomycin, and 90% DMEM media (GIBCO, Grand Island, N.Y.) in 5% CO2 at 37° C. for three days before the binding assay.
Stable Expression in CHO: To establish a stable cell line expressing the cloned human NK1R, the cDNA was subcloned into the vector pRcCMV (INVITROGEN). Transfection of 20 ug of the plasmid DNA into CHO cells was achieved by electroporation in 800 ul of transfection buffer supplemented with 0.625 mg/ml Herring sperm DNA at 300 V and 950 uF using the IBI GENEZAPPER (IBI). The transfected cells were incubated in CHO media [10% fetal calf serum, 100 U/ml penicillin-streptomycin, 2 mM glutamine, 1/500 hypoxanthine-thymidine (ATCC), 90% IMDM media (JRH BIOSCIENCES, Lenexa, Kans.), 0.7 mg/ml G418 (GIBCO)] in 5% CO2 at 37° C. until colonies were visible. Each colony was separated and propagated. The cell clone with the highest number of human NK1R was selected for subsequent applications such as drug screening.
Assay Protocol using COS or CHO: The binding assay of human NK1R expressed in either COS or CHO cells is based on the use of ^125I-substance P (^125I-SP, from DU PONT, Boston, Mass.) as a radioactively labeled ligand which competes with unlabeled substance P or any other ligand for binding to the human NK1R. Monolayer cell cultures of COS or CHO were dissociated by the non-enzymatic solution (SPECIALTY MEDIA, Lavallette, N.J.) and resuspended in appropriate volume of the binding buffer (50 mM Tris pH 7.5, 5 mM MnCl2, 150 mM NaCl, 0.04 mg/ml bacitracin, 0.004 mg/ml leupeptin, 0.2 mg/ml BSA, 0.01 mM phosphoramidon) such that 200 ul of the cell suspension would give rise to about 10,000 cpm of specific ^125I-SP binding (approximately 50,000 to 200,000 cells). In the binding assay, 200 ul of cells were added to a tube containing 20 ul of 1.5 to 2.5 nM of ^125I-SP and 20 ul of unlabeled substance P or any other test compound. The tubes were incubated at 4° C. or at room temperature for 1 hour with gentle shaking. The bound radioactivity was separated from unbound radioactivity by GF/C filter (BRANDEL, Gaithersburg, Md.) which was pre-wetted with 0.1% polyethylenimine. The filter was washed with 3 ml of wash buffer (50 mM Tris pH 7.5, 5 mM MnCl2, 150 mM NaCl) three times and its radioactivity was determined by gamma counter. The activation of phospholipase C by NK1R may also be measured in CHO cells expressing the human NK1R by determining the accumulation of inositol monophosphate which is a degradation product of IP3. CHO cells are seeded in 12-well plate at 250,000 cells per well. After incubating in CHO media for 4 days, cells are loaded with 0.025 uCi/ml of ^3H-myoinositol by overnight incubation. The extracellular radioactivity is removed by washing with phosphate buffered saline. LiCl is added to the well at final concentration of 0.1 mM with or without the test compound, and incubation is continued at 37° C. for […]. Substance P is added to the well at final concentration of 0.3 nM to activate the human NK1R. After 30 min of incubation at 37° C., the media is removed and 0.1 N HCl is added. Each well is sonicated at 4° C. and extracted with CHCl3/methanol (1:1). The aqueous phase is applied to a 1 ml Dowex AG 1X8 ion exchange column. […]

T1 sequence (P25103 whole entry): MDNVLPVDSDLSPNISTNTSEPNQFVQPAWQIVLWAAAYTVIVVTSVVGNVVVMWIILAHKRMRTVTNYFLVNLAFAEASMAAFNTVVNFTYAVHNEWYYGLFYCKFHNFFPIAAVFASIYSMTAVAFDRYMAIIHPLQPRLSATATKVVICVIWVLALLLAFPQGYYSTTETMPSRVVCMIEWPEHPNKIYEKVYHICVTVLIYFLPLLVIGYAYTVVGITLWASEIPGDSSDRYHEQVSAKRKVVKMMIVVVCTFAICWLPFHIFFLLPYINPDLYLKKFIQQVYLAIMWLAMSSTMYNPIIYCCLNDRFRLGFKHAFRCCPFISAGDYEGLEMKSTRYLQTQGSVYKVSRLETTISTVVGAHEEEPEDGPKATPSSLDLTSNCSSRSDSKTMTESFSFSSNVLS

Row | Structure (SMILES) | pIC50
1 | O=C1C=C(N2C[C@@H]3CCN(C(=O)Cc4cc(C(F)(F)F)cc(C(F)(F)F)c4)[C@H](c4ccc(F)cc4)[C@H]3C2)CC1 (racemic) [Example 1, 3-[(3aSR,4RS,7aSR)-5-{[3,5-bis(trifluoromethyl)phenyl]acetyl}-4-(4-fluorophenyl)octahydro-2H-pyrrolo[3,4-c]pyridin-2-yl]cyclcopent-2-en-1-one] | 8.77
2 | CC(C(=O)N1CC[C@@H]2CN(C3=CC(=O)CC3)CC2[C@@H]1c1ccc(F)cc1)c1cc(C(F)(F)F)cc(C(F)(F)F)c1 (mixture of isomers) [Example 2, 3-[(3aSR,4RS,7aSR)-5-{2-[3,5-bis(trifluoromethyl)phenyl]propanoyl}-4-(4-fluorophenyl)octahydro-2H-pyrrolo[3,4-c]pyridin-2-yl]cyclopent-2-en-1-one] | 9.60
3 | CC(C(=O)N1CC[C@@H]2CN(C3=CC(=O)CC3)CC2[C@@H]1c1ccc(F)cc1)c1cc(C(F)(F)F)cc(C(F)(F)F)c1 (mixture of isomers) [Example 3, 3-[(3aSR,4RS,7aSR)-5-{2-[3,5-bis(trifluoromethyl)phenyl]propanoyl}-4-(4-fluorophenyl)octahydro-2H-pyrrolo[3,4-c]pyridin-2-yl]cyclopent-2-en-1-one] | 7.92
4 | CC(C)(C(=O)N1CC[C@@H]2CN(C3=CC(=O)CC3)C[C@H]2[C@@H]1c1ccc(F)cc1)c1cc(C(F)(F)F)cc(C(F)(F)F)c1 (racemic) [Example 4] | 9.77
5 | O=C(CN1CCOC1=O)N1C[C@H]2CCN(C(=O)Cc3cc(C(F)(F)F)cc(C(F)(F)F)c3)[C@@H](c3ccc(F)cc3)[C@@H]2C1 (racemic) [Example 5, 3-{2-[(3aSR,4RS,7aSR)-5-{[3,5-bis(trifluoromethyl)phenyl]acetyl}-4-(4-fluorophenyl)octahydro-2H-pyrrolo[3,4-c]pyridin-2-yl]-2-oxoethyl}-1,3-oxazolidin-2-one] | 8.46
6 | CC(c1cc(C(F)(F)F)cc(C(F)(F)F)c1)N(C)C(=O)N1CC[C@@H]2CN(C(=O)C3CCOCC3)C[C@H]2[C@@H]1c1ccc(F)cc1 (mixture of isomers) [Example 7, (3aSR,4RS,7aSR)-N-{1-[3,5-bis(trifluoromethyl)phenyl]ethyl}-4-(4-fluorophenyl)-N-methyl-2-(tetrahydro-2H-pyran-4-ylcarbonyl)octahydro-5H-pyrrolo[3,4-c]pyridine-5-carboxamide] | 9.28
7 | CC(c1cc(C(F)(F)F)cc(C(F)(F)F)c1)N(C)C(=O)N1CC[C@@H]2CN(C3=CC(=O)CC3)CC2[C@@H]1c1ccc(F)cc1 (stereo partly drawn) [Example 6] | 9.80
8 | Cc1ccccc1[C@H]1[C@@H]2CN(Cc3ccccc3)C[C@H]2CCN1C(=O)N(C)[C@H](C)c1cc(C(F)(F)F)cc(C(F)(F)F)c1 [Example 8, (3aS,4R,7aS)-2-benzyl-N-{(1R)-1-[3,5-bis(trifluoromethyl)phenyl]ethyl}-N-methyl-4-(2-methylphenyl)octahydro-5H-pyrrolo[3,4-c]pyridine-5-carboxamide] | 8.92
9 | Cc1ccccc1[C@H]1[C@@H]2CN(C3=CC(=O)CC3)C[C@H]2CCN1C(=O)N(C)[C@H](C)c1cc(C(F)(F)F)cc(C(F)(F)F)c1 [Example 10, (3aS,4R,7aS)-N-{(1R)-1-[3,5-bis(trifluoromethyl)phenyl]ethyl}-N-methyl-4-(2-methylphenyl)-2-(3-oxocyclopent-1-en-1-yl)octahydro-5H-pyrrolo[3,4-c]-pyridine-5-carboxamide] | 10.18
10 | Cc1ccccc1[C@H]1C2CN(C3=NC(=O)CO3)C[C@H]2CCN1C(=O)N(C)[C@H](C)c1cc(C(F)(F)F)cc(C(F)(F)F)c1 (stereo partly drawn) [Example 12] | 10.37
11 | Cc1ccccc1[C@H]1C2CN(C3=CC(=O)OC3)C[C@H]2CCN1C(=O)N(C)[C@H](C)c1cc(C(F)(F)F)cc(C(F)(F)F)c1 (stereo partly drawn) [Example 13, (3aS,4R aS)-N-{(1R)-1-[3,5-bis(trifluoromethyl)phenyl]ethyl}-N-methyl-4-(2-methylphenyl)-2-(5-oxo-2,5-dihydrofuran-3-yl)octahydro-5H-pyrrolo[3,4-c]pyridine-5-carboxamide] | 10.08

Continued, values first:

Row | pIC50 | Structure (SMILES)
12 | 10.39 | Cc1ccccc1[C@H]1[C@@H]2CNC[C@H]2CCN1C(=O)N(C)[C@H](C)c1cc(C(F)(F)F)cc(C(F)(F)F)c1 [Example 9, (3aS,4R,7aS)-N-{(1R)-1-[3,5-bis(trifluoromethyl)phenyl]ethyl}-N-methyl-4-(2-methylphenyl)octahydro-5H-pyrrolo[3,4-c]pyridine-5-carboxamide]
13 | 10.22 | Cc1ccccc1[C@H]1[C@@H]2CN(C(N)=O)C[C@H]2CCN1C(=O)N(C)[C@H](C)c1cc(C(F)(F)F)cc(C(F)(F)F)c1 [Example 11, (3aS,4R,7aS)-N^5-{(1R)-1-[3,5-bis(trifluoromethyl)phenyl]ethyl}-N^5-methyl-4-(2-methylphenyl)tetrahydro-1H-pyrrolo[3,4-c]pyridine-2,5(3H,4H)-dicarboxamide]
14 | 10.36 | Cc1ccccc1[C@H]1[C@@H]2CN(C(C)C)C[C@H]2CCN1C(=O)N(C)[C@H](C)c1cc(C(F)(F)F)cc(C(F)(F)F)c1 [Example 14, (3aS,4R,7aS)-N-{(1R)-1-[3,5-bis(trifluoromethyl)phenyl]ethyl}-2-isopropyl-N-methyl-4-(2-methylphenyl)octahydro-5H-pyrrolo[3,4-c]pyridine-5-carboxamide]
15 | 10.15 | Cc1ccccc1[C@H]1[C@@H]2CN(CC(N)=O)C[C@H]2CCN1C(=O)N(C)[C@H](C)c1cc(C(F)(F)F)cc(C(F)(F)F)c1 [Example 15, (3aS,4R,7aS)-2-(2-amino-2-oxoethyl)-N-{(1R)-1-[3,5-bis(trifluoromethyl)phenyl]ethyl}-N-methyl-4-(2-methylphenyl)octahydro-5H-pyrrolo[3,4-c]pyridine-5-carboxamide]
16 | 9.82 | Cc1ccccc1[C@H]1[C@@H]2CN(CC(=O)O)C[C@H]2CCN1C(=O)N(C)[C@H](C)c1cc(C(F)(F)F)cc(C(F)(F)F)c1 [Example 16, [(3aS,4R,7aS)-5-{[{(1R)-1-[3,5-bis(trifluoromethyl)phenyl]ethyl}(methyl)amino]carbonyl}-4-(2-methylphenyl)octahydro-2H-pyrrolo[3,4-c]pyridin-2-yl]acetic acid]
17 | 10.09 | Cc1ccccc1[C@H]1[C@@H]2CN(C(=O)[C@H](C)O)C[C@H]2CCN1C(=O)N(C)[C@H](C)c1cc(C(F)(F)F)cc(C(F)(F)F)c1 [Example 17, (3aS,4R,7aS)-N-{(1R)-1-[3,5-bis(trifluoromethyl)phenyl]ethyl}-2-[(2S)-2-hydroxypropanoyl]-N-methyl-4-(2-methylphenyl)octahydro-5H-pyrrolo[3,4-c]pyridine-5-carboxamide]
18 | 10.17 | CC(=O)N1CC2[C@H](CCN(C(=O)N(C)[C@H](C)c3cc(C(F)(F)F)cc(C(F)(F)F)c3)[C@H]2c2ccccc2C)C1 (stereo partly drawn) [Example 18, (3aS,4R,7aS)-2-acetyl-N{(1R)-1-[3,5-bis(trifluoromethyl)phenyl]ethyl}-N-methyl-4-(2-methylphenyl)octahydro-5H-pyrrolo[3,4-c]pyridine-5-carboxamide]
